Data reported in patent publication US12319750B2, “Hexokinase 2-specific inhibitors for use in acute central nervous system injury” (GUANGZHOU CELLPROTEK PHARMACEUTICAL CO., LTD, priority 2017, dated 2025).

Tests used:
[1] = test system: BV2 microglia cells; assay: Hypoxia-induced microglial activation (morphological changes) in BV2 cells; assay type: cell-based, mouse
Method: a) Cell culture: BV2 cells were grown in DMEM containing 10% fetal bovine serum (FBS), placed in 5% CO2, cultured in a 37° C. constant temperature incubator (relative humidity was 95%), and observed under inverted microscope. Passage was performed approximately 2-3 days, and logarithmic growth phase cells were used for formal experiments. The cells in the hypoxic treatment group were placed in the Coy anoxic chamber with 1% 02, 5% CO2, and 94% N2; other conditions were the same as normal culture conditions.
(§1) b) RNA interference: Cells were seeded in a 35 mm culture dish for 24 hours. Short-interfering RNAs (siRNAs) were transfected with RNAiMAX Reagent. Scrambled RNA was used as a control. In total, 50 nM siRNAs were transfected into the cultures, and after 12 hours, the medium was replaced with fresh medium. Cells were then stimulated with hypoxia for 24 hours to detect the expression level of the indicated proteins.
a) Cell culture: BV2 cells were grown in DMEM containing 10% fetal bovine serum (FBS), placed in 5% CO2, cultured in a 37° C. constant temperature incubator (relative humidity was 95%), and observed under inverted microscope. Passage was performed approximately 2-3 days, and logarithmic growth phase cells were used for formal experiments.

[2] = test system: BV2 microglia cells; assay: Proinflammatory cytokine protein expression under hypoxia; assay type: cell-based, mouse; settings: 2-DG, BV 2 cells under hypoxia
Method: b) Protein extraction and proinflammatory cytokine protein expression assay: After incubated in 35 mm culture dishes and placed for 24 hours, the cells were subject to hypoxia treatment for indicated time. The total cellular protein was then extracted to detect protein expression of the proinflammatory cytokines TNF-α, IL-1β and IL-6.

[3] = test system: BV 2 cells; assay: qRT-PCR of proinflammatory cytokine mRNA under hypoxia; assay type: cell-based, mouse; settings: lonidamine 50 μM, 3-BrPA 10 μM; for 116 expression (mRNA) / Tnfa expression (mRNA): hypoxia
Method: Next, quantitative reverse transcription polymerase chain reaction assays were performed to examine the mRNA levels of several proinflammatory cytokines in the presence or absence of HK2 inhibitors. […] Chromatin immunoprecipitation assays were carried out to examine endogenous binding of acetylated histones to I11b promoter. The binding of AcH3 and AcH4 to the I11b promoter increased during hypoxia, whereas it could be decreased by pretreatment with lonidamine (FIG. 7F).

[4] = test system: BV 2 cells; assay: Metabolite profiling: acetyl-coenzyme A accumulation under hypoxia; assay type: cell-based, mouse; settings: lonidamine 50 μM, BrPA 10 μM; hypoxia 6 hours
Method: c) Metabolite profiling: BV2 cells were seeded in a 60 mm culture dish and cultured for 24 hours and then cultured in normoxic or hypoxic conditions for 6 hours. Metabolites were extracted using 1.5 mL of ice-cold 80% methanol. After incubation at −80° C. for 30 minutes, cells were scrapped and centrifuged at 14,000 g for 15 min at 4° C. The upper methanol/water phase were transferred into new tubes and incubated at −80° C. for another 30 minutes. The upper phases were centrifuged and dried under nitrogen gas and dried samples were stored at −80° C. prior to LC-MS analysis.

[5] = test system: primary microglia (pMG); assay: Hypoxia-induced microglial activation (morphological changes) in primary microglia; assay type: cell-based, mouse; settings: lonidamine 50 μM
Method: For the isolation and culture of primary microglia, cells were isolated from newborn C57BL/6J mice. Briefly, cerebral cortices devoid of meninges and blood vessels were dissociated from P0-2 mice and digested by 0.125% trypsin at 37° C. for 15 minutes. The digestion was terminated by addition of DMEM containing 10% FBS and isolated single cells were seeded in culture dishes. After the mixed cultures became confluent, microglia were separated from other cell types by slight shaking and purification was identified by the microglial-specific marker CD 11b.

[6] = test system: middle cerebral artery occlusion (MCAo) rats; assay: Rat MCAo model, infarct volume by TTC staining; assay type: in vivo; settings: 10 mg/kg two hours after operation; measured 24 hours after reperfusion
[7] = test system: primary microglia (pMG); assay: CD 11b expression in hypoxia-stimulated primary microglia; assay type: cell-based, mouse; settings: lonidamine 50 μM, DMSO as solvent
Method: For the isolation and culture of primary microglia, cells were isolated from newborn C57BL/6J mice. Briefly, cerebral cortices devoid of meninges and blood vessels were dissociated from P0-2 mice and digested by 0.125% trypsin at 37° C. for 15 minutes. The digestion was terminated by addition of DMEM containing 10% FBS and isolated single cells were seeded in culture dishes. After the mixed cultures became confluent, microglia were separated from other cell types by slight shaking and purification was identified by the microglial-specific marker CD 11b. b) CD 11b expression detected by Immunofluorescence: BV2 cells were seeded in a laser confocal-specific culture plate, and treated with hypoxia for 24 hours, fixed in 4% paraformaldehyde at room temperature for 20 minutes, and then washed three times with PBST for 5 minutes each time. After washing, CD 11b antibody diluted with DAKO antibody dilution was added and incubated overnight at 4° C. The next day, the samples were incubated with indicated fluorescently labeled secondary antibody at 37° C. for 1 hour.

[8] = test system: I11b promoter; assay: Chromatin immunoprecipitation (ChIP): acetylated histones at I11b promoter; assay type: cell-based, mouse; settings: pretreatment 1 hour prior to 6 hours hypoxic exposure
Method: d) Chromatin immunoprecipitation (ChIP) assay: BV 2 cells were treated with dimethylsulfoxide or lonidamine for 1 hour prior to 6 hours hypoxic exposure. Then, cells were cross-linked with a 1% formaldehyde solution (Sigma, F8775) for 10 minutes at 37° C. Cell lysates were sonicated to generate 100-1000 bp DNA fragments. Samples were diluted, and 10% of the total amount was retained for input. The remaining portions of each sample were pre-cleared, and anti-H3 or anti-H4 antibodies were added; a normal rabbit IgG antibody was simultaneously used as the negative control. The next day, protein G agarose was added and samples were washed after 2 hours of incubation. Cross-links were then reversed by incubation at 65° C. for 4 hours in 0.2 M NaCl. DNAs were extracted from the input and IP samples, and qPCR assays were performed. The […] promoter primer sequences were as follows: [NT] (forward) (SEQ ID NO. 19) and [NT] (reverse) (SEQ ID NO. 20).

[9] = test system: BV2 microglia cells; assay: CD 11b expression in hypoxia-stimulated BV2 cells; assay type: cell-based, mouse; settings: lonidamine 50 μM, DMSO as solvent
Method: c) CD 11b expression detected by Immunofluorescence: BV2 cells were seeded in a laser confocal-specific culture plate, and treated with hypoxia for 24 hours, fixed in 4% paraformaldehyde at room temperature for 20 minutes, and then washed three times with PBST for 5 minutes each time. After washing, CD 11b antibody diluted with DAKO antibody dilution was added and incubated overnight at 4° C. The next day, the samples were incubated with indicated fluorescently labeled secondary antibody at 37° C. for 1 hour.
as §1
b) CD 11b expression detected by Immunofluorescence: BV2 cells were seeded in a laser confocal-specific culture plate, and treated with hypoxia for 24 hours, fixed in 4% paraformaldehyde at room temperature for 20 minutes, and then washed three times with PBST for 5 minutes each time. After washing, CD 11b antibody diluted with DAKO antibody dilution was added and incubated overnight at 4° C. […]

For `O=CC[C@@H](O)[C@H](O)[C@H](O)CO` [2-deoxyglucose, 2-deoxy-D-glucose], the “percentage of BV 2 cells with activated morphological changes” value ([1]; 500 μM 2-DG, hypoxia 1% oxygen) was “significantly decreased” and the “production of proinflammation cytokines” value [2] was “significantly impaired”.
For `O=C(O)C(=O)CBr` [3-Br-pyruvate, 3-bromopyruvate], the “hypoxia-induced I11b expression at the mRNA level” value [3] was “dramatically inhibited”, the “116 expression (mRNA)” value [3] was “no effect” and the “Tnfa expression (mRNA)” value [3] was “no effect”. For the same compound, the “hypoxia-induced accumulation of acetyl-coenzyme A” value [4] was “remarkably impaired”.
In the case of `O=C(O)c1nn(Cc2ccc(Cl)cc2Cl)c2ccccc12` [Lonidamine], the “activated state of BV 2 cultures during hypoxia” value ([1]; lonidamine 50 μM) is reported as “markedly inhibited”, the “hypoxia-induced I11b expression at the mRNA level” value [3] is reported as “dramatically inhibited” and the “116 expression (mRNA)” value [3] is reported as “no effect”. For the same compound, the “Tnfa expression (mRNA)” value [3] was “no effect”, the “activated state of pMG cultures during hypoxia” value [5] was “markedly inhibited” and the infarct size [6] was “significantly reduced”. For the same compound, the “hypoxia-induced accumulation of acetyl-coenzyme A” value [4] was “remarkably impaired”, the “CD 11b expression, pMG cells (immunofluorescence)” value [7] was “reduction” and the “binding of AcH3 to the I11b promoter during hypoxia” value [8] was “decreased”. For the same compound, the “binding of AcH4 to the I11b promoter during hypoxia” value [8] was “decreased” and the “CD 11b expression, BV 2 cells (immunofluorescence)” value [9] was “reduction”.
